Data published in patent US20090215025A1, “SMALL PEPTIDIC AND PEPTIDO-MIMETIC AFFINITY LIGANDS FOR FACTOR VIII AND FACTOR VIII-LIKE PROTEINS” (TECHNISCHE UNIVERSITAT MUNCHEN, priority 2005, published 2009).

Key:
[1] = target: T1, plasma-derived (pd-) human Factor VIII (FVIII) (Homo sapiens, UniProt P00451); assay: Binding of 125I-labeled pd-FVIII to peptides immobilized on Toyopearl AF-Epoxy-650M resin (micro-beads assay); details: Table 1
T1 construct: from tissue; host or cells: human blood plasma (FVIII concentrate)
T1 sequence (P00451 20-1667 limits assumed, one chain of several): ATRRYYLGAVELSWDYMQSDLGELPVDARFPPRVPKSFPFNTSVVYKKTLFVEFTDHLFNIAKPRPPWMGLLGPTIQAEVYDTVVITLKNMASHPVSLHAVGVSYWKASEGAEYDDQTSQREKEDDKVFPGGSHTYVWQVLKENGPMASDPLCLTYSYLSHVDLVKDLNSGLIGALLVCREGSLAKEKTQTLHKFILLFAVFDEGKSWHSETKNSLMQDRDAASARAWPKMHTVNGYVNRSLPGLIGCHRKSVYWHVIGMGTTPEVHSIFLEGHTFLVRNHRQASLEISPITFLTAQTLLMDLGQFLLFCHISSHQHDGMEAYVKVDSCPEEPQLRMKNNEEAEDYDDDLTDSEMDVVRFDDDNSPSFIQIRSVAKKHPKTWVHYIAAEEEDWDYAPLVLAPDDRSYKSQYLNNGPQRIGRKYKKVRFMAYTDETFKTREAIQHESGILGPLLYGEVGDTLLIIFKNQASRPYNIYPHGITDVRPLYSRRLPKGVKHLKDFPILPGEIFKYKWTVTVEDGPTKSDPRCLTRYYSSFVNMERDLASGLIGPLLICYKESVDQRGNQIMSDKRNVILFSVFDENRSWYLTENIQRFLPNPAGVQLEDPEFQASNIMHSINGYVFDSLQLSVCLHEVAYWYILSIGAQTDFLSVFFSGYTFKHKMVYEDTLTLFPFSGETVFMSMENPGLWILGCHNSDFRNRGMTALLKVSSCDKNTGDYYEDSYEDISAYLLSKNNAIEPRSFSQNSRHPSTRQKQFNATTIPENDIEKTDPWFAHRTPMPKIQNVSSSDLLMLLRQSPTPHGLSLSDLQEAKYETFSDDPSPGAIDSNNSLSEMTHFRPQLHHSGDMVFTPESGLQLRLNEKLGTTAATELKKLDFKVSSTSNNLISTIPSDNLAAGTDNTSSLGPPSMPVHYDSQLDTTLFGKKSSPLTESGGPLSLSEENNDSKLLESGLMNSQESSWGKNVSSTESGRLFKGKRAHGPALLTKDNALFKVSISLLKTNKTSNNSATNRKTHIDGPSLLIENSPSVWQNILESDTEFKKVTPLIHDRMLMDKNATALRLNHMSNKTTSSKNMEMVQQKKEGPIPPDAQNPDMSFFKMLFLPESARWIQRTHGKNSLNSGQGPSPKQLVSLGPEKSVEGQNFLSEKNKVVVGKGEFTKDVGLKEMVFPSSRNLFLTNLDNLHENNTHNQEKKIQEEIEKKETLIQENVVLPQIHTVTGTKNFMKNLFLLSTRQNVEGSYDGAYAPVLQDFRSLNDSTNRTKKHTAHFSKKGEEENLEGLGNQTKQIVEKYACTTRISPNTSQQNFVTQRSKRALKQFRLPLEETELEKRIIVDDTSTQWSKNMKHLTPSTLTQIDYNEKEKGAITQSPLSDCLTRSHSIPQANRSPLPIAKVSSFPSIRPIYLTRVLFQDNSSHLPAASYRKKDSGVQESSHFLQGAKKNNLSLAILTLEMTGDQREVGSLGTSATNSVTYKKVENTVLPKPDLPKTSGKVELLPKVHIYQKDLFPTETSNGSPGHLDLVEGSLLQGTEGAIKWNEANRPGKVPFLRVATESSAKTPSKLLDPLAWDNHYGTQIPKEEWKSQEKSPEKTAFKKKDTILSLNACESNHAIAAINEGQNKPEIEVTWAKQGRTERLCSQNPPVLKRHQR
Procedure: Peptides P1 to P25 were immobilized on the Toyopearl AF-Epoxy-650M resin (Tosoh Biosep) as described by Jungbauer et al. For immobilization, 2.5 mg of each peptide was dissolved in 0.25 mL of the immobilization buffer (0.2 M sodium bicarbonate, pH 10.3), and 0.036 g of the dry resin powder (corresponding to 0.125 mL of swollen resin) was added, followed by incubation of the mixture with gentle rotation for 48 hours. Upon incubation for 48 hours the resin was washed once with immobilization buffer, once with 1 M NaCl and then 3 times with binding buffer, and binding of ^125I-labeled pd-FVIII to the peptide-coated and control resin was tested. The coupling density of each peptide in each of the reported experiments was as mentioned in Table 1. The control 0.25 mL portion of the resin was similarly treated in parallel experiment in the absence of peptide and was subsequently used as a control (designated as Background) in ^125I-pd-FVIII binding experiments. ^125I-pd-FVIII Bound/Background ratios were calculated as the amount of ^125I-pd-FVIII, bound to an immobilized peptide, divided by that bound to uncoated control resin, prepared as described above. This ratio represents a Signal/Noise ratio for the micro-beads assay, since ^125I-pd-FVIII bound to peptide represents the signal value and ^125I-pd-FVIII bound to peptide-uncoated resin represents the background (noise) value.
Plasma-derived (pd-) human Factor VIII (FVIII) was purified from concentrate by immunoaffinity chromatography on an anti-FVIII monoclonal antibody column followed by subsequent concentration of pd-FVIII by ion-exchange chromatography using Resource Q HR5/5 column. To separate FVIII from vWf, concentrate was incubated in 0.35 M NaCl, 0.04 M CaCl2, prior to affinity purification.
Trace amounts of vWf, which are potentially present in pd-FVIII preparation, were removed by passing pd-FVIII preparation through the column with anti-vWf high affinity monoclonal antibody, immobilized at the density 1.4 mg per mL of resin.
Ten μg of purified pd-FVIII were iodinated using lactoperoxidase beads and 0.5 mCi of Na^125I.
(§1) The resin with immobilized peptides was washed in the binding buffer (0.01 M Hepes, 0.1 M NaCl, 5 mM CaCl2, 0.01% Tween-80). Subsequently, the resin was diluted in the binding buffer as 1:7 slurry and aliquoted into Eppendorf tubes (40 μl per tube). ^125I-pd-FVIII (100000 cpm in 10 μl) was added to the tubes and the volume of the mixture was adjusted to 100 μl by adding 50 μl of the binding buffer containing 4% BSA to give a 2% final concentration of BSA. After 2 hours of incubation at room temperature on a rotator, the samples were washed 4 times in the binding. After each wash the tubes were centrifuged at 5000 rpm for 1 min in an Eppendorf microcentrifuge, supernatant was discarded, and the resin was re-suspended in the washing buffer, followed by centrifugation under the same conditions. After four washes the tubes with pellet without supernatant were counted for radioactivity. The resin without peptide was processed similarly to account for non-specific pd-FVIII binding to tubes and resin itself, and the radioactivity in this control tube was considered as a background value. Since ^125I-pd-FVIII contains the some fraction damaged during radiolabeling, binding was calculated as a percent of maximal achievable binding, determined in separate experiment with anti-FVIII Mab 8860-coated resin.
All the measurements were performed in duplicates. Each experiment was performed using two independently prepared immobilized peptide samples. The data presented in each figure are the mean values of the four determinations: duplicate determination in the two assays performed with beads on which peptides were independently immobilized on the different days. […]

[2] = target: T2, ReFacto® (recombinant form of FVIII) (Homo sapiens, UniProt P00451, DEL763-1656); assay: Binding of 125I-ReFacto to peptide-coated resin; details: resin coated with peptide
T2 construct: purchased Wyeth-Ayerst Pharmacia and Upjohn; host or cells: CHO cells
T2 sequence (P00451 with tags, fused parts or gaps DEL763-1656 limits assumed): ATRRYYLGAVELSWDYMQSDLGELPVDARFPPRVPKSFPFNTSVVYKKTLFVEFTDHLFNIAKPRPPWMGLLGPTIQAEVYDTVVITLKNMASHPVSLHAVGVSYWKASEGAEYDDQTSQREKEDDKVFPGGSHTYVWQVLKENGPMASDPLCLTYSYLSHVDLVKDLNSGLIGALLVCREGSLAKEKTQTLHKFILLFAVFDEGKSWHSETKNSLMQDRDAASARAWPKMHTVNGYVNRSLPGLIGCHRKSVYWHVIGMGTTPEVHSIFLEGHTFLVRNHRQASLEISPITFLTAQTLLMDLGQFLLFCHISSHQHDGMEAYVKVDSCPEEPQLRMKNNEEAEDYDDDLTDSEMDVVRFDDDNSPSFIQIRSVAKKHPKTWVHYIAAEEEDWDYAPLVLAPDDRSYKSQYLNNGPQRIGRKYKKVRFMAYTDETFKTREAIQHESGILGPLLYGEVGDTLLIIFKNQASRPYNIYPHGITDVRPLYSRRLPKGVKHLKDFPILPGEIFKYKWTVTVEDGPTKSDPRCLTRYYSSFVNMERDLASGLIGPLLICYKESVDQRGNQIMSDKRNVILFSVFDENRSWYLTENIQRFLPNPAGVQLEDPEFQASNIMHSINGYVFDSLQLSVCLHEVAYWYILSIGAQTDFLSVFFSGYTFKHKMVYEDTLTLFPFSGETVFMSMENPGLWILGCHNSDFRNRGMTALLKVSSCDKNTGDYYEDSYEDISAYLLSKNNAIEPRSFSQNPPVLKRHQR
T2 sequence (P00451 1668-2351 limits assumed): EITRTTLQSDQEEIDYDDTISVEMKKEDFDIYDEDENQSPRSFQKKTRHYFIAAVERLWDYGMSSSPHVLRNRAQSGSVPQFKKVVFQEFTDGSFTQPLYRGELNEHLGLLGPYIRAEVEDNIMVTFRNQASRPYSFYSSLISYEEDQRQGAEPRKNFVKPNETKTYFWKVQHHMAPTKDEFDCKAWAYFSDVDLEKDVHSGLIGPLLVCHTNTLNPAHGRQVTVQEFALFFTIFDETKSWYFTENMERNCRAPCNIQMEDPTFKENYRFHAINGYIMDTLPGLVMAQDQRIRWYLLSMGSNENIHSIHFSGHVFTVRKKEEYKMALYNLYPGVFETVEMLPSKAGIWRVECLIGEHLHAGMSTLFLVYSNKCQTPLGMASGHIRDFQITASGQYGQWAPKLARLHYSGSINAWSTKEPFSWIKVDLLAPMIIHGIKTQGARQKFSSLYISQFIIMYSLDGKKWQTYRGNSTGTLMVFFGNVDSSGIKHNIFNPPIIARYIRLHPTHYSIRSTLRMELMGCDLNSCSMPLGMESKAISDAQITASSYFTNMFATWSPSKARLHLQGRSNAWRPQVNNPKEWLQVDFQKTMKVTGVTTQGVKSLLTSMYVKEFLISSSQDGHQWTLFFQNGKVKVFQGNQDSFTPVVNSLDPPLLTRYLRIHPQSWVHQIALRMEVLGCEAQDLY
Procedure: as §1, with “After each wash the tubes were centrifuged at 5000 rpm for 1 min in an Eppendorf microcentrifuge, supernatant was discarded, and the resin was re-suspended in the washing buffer, followed by centrifugation under the same conditions.” left out, “resin. […]” for “resin.”
(§2) Kogenate® and ReFacto® were iodinated in the same manner as described in Example 1 with respect to the pd-FVIII. Protein binding was measured using the same procedures as described in Example 1 above.

[3] = target: T3, Kogenate® (recombinant form of FVIII) (Homo sapiens, UniProt P00451); assay: Binding of 125I-Kogenate to peptide-coated resin; details: resin coated with peptide
T3 construct: purchased Bayer; host or cells: baby hamster kidney (BHK) cells
T3 sequence (P00451 20-1667 limits assumed, one chain of several): as the sequence (P00451 20-1667 limits assumed, one chain of several) above
Procedure: as §1, with “After each wash the tubes were centrifuged at 5000 rpm for 1 min in an Eppendorf microcentrifuge, supernatant was discarded, and the resin was re-suspended in the washing buffer, followed by centrifugation under the same conditions.” left out, “resin. […]” for “resin.”
as §2

Substance: IAA-Glu-Tyr-Cys-OH [Compound P15]
- Binding, rel. to control ([1]; 125I-pd-FVIII Bound/Background ratio versus uncoated control resin): 39.3 ± 0.3
- % Binding pdFVIII ([1]; immobilized on Toyopearl AF-Epoxy-650M, percent of maximal achievable binding (anti-FVIII Mab 8860-coated resin), mean of four determinations): 75.4 ± 0.6%
- 125I-ReFacto binding (% of total) [2]: 54.9 ± 6.3 % of total
- 125I-Kogenated FS binding (% of total) [3]: 49.6 ± 1.7 % of total
